Assay results: US7838468B2, “High molecular weight polyamine salts as clay stabilizing agents” (Baker Hughes Incorporated, priority 2003, dated 2010)

Test: permeability of Bandera sandstone (clay stabilization)
Conditions: API standard brine and tap water, 150° F. (66° C.)
Experimental: FIG. 1 is a graph of the effect of TMAC and Tap Water on the permeability of Bandera Sandstone at 150° F. (66° C.);
FIG. 2 is a graph of the effect of A4819 and Tap Water on the permeability of Bandera Sandstone at 150° F. (66° C.); and
FIG. 3 is a graph of the effect of A4840 and Tap Water on the permeability of Bandera Sandstone at 150° F. (66° C.).
The products TMAC (tetramethylammonium chloride), A4819 and A4840 were tested on an API standard brine and tap water on Bandera sandstone for permeability.

For `C[N+](C)(C)C.[Cl-]` [TMAC, tetramethylammonium chloride], the “maintaining permeability (measure that the clay is stable)” value was “performed well”.
